Results taken from patent US4622328A, “Phenyl-naphthyridines and drugs containing them, particularly anti-ulcer drugs” (priority 1984, dated 1986).
Where two headings read alike, the source gives them in different places.

What was measured:
total acid secretion = experiment: Anti-secretory activity: inhibition of total acid secretion after pyloric ligature; format: in vivo, male rats of OFA (Iffa Credo) strain; conditions: for ED50: Rattus norvegicus, 4 h, read-out: AD50 (active dose 50); for % of inhibition of the total acid secretion: 4 hours
Method: A pyloric ligature is made under ether anaesthesia on batches of 5 male rats of OFA (Iffa Credo) strain weighing 180-200 g. The product studied is administered by the oral or sub-cutaneous route at the time of the ligature. The animals are sacrificed 4 hours later and the acidity of the gastric fluid collected is titered by 0.1N sodium hydroxide to pH 4 and 7.
They are expressed in percentage of inhibition of the total acid secretion. The active dose 50 is determined from the linear regression. The significance is given by the Student "t" test (* and ** for p<0.05 and p<0.01).

[1] = system: gastric lesions (ulcers) provoked by ethanol; experiment: Anti-ulcer activity: protection of gastric lesions provoked by a necrosing agent (ethanol); format: in vivo, male rats of OFA (Iffa Credo) strain; conditions: for ED50: Rattus norvegicus, po, read-out: AD50 (active dose 50)
Method: (§1) Batches of 10 to 30 male rats of OFA (Iffa Credo) strain, weighing 160-180 g, are placed on a water diet 24 hours before the oral administration of the product studied. Thirty minutes later, a medicamentous ulcer-forming agent or a necrosing agent (for example absolute ethanol) is administered by the oral route at doses which cause in the control animals a maximum gastric ulceration. The stomachs are removed, according to the test, 6 and 1 hr. respectively after the last treatment. The gastric lesions are then assessed macroscopically (dimensioning and measurement of the size of the ulcers).
(§2) They are expressed in the form of % of inhibition of the ulcers. The active dose 50 is determined graphically.

oedema (carragenin) = experiment: Anti-inflammatory activity: inhibition of carragenin oedema of the paw; format: in vivo, male rats of CD (Charles River) strain
Method: Batches of 6 to 12 male rats of CD (Charles River) strain, weighing 120-130 g, receive for food and drink a 9 o/oo solution of sodium chloride and 200 o/oo of glucose 18 hours before the test.
The volume of the paw is measured by plethysmography at regular intervals.
The active dose 50 and its limits are determined from the linear regression. The significance of the results is given by the Student "t" test (*, ** and *** for p<0.05, p<0.01 and […]).

[2] = system: painful reactions (phenylbenzoquinone); experiment: Analgesic activity: inhibition of painful reactions (twists and stretches) to phenylbenzoquinone; format: in vivo, male mice of CDl (Charles River) strain; conditions: for DA50 (active dose): VO, linear regression
Method: Batches of 6 to 18 male mice of CDl (Charles River) strain, weighing 18 to 22 g, receive by the intraperitoneal route a water-alcohol 0.02% solution of phenylbenzoquinone 1 hour after treatment by the oral route. The number of painful reactions is counted from the 5th to the 10th minute.
The active dose and its limits are determined from the linear regression.

in vivo = conditions: fasting Sprague Dawley rat, oral route
[3] = system: gastric lesions (ulcers) provoked by nonsteroid antiinflammatory agent; experiment: Anti-ulcer activity: protection of gastric lesions provoked by a medicamentous ulcer forming agent (nonsteroid antiinflammatory agent); format: in vivo, male rats of OFA (Iffa Credo) strain; conditions: for ED50: Rattus norvegicus, po, read-out: AD50 (active dose 50)
Method: as §1, §2

[4] = 0.06 mg.kg-1 VO, ethanol lesions
[5] = 0.25 mg.kg-1 VO, ethanol lesions
[6] = VO, ethanol lesions, determined graphically
[7] = VO, NSAID lesions, determined graphically

Compound | % of inhibition of the total acid secretion (total acid secretion; administered SC, 0.25 mg.kg-1) [%] | % of inhibition of the total acid secretion (total acid secretion; administered SC, 0.5 mg.kg-1) [%] | % of protection of lesions provoked [1, 4] [%] | % of protection of lesions provoked [1, 5] [%] | % of protection of lesions provoked ([1]; 1 mg.kg-1 VO, ethanol lesions) [%] | ED50 [1, 6] [mg/kg] | % of inhibition of the oedema (oedema (carragenin); 4 mg.kg-1 VO) [%] | % of inhibition of the oedema (oedema (carragenin); 16 mg.kg-1 VO) [%] | % of inhibition of the oedema (oedema (carragenin); 64 mg.kg-1 VO) [%] | % of inhibition of the oedema (oedema (carragenin); 128 mg.kg-1 VO) [%] | % of inhibition of the oedema (oedema (carragenin); 256 mg.kg-1 VO) [%] | % of inhibition of the painful reactions ([2]; 16 mg.kg-1 VO) [%] | % of inhibition of the painful reactions ([2]; 32 mg.kg-1 VO) [%] | % of inhibition of the painful reactions ([2]; 64 mg.kg-1 VO) [%] | % of inhibition of the painful reactions ([2]; 128 mg.kg-1 VO) [%] | % of inhibition of the painful reactions ([2]; 256 mg.kg-1 VO) [%] | DA50 (active dose) [2] [mg · kg - 1] | LD50 (in vivo) [mg/kg] | % of protection of lesions provoked ([3]; 2 mg.kg-1 VO, NSAID lesions) [%] | % of protection of lesions provoked ([3]; 4 mg.kg-1 VO, NSAID lesions) [%] | also measured
Cc1cc2cccnc2n(-c2cccc(C(F)(F)F)c2)c1=O [Examples 3 & 10, 1-(3-trifluoromethylphenyl)1,2-dihydro 2-oxo 3-methyl 1,8-naphthyridine] | 4 | 38 | 0 | 42 | 79 | 0.37 | 10 | 31 | 47 | 61 | 64 | 30 | 26 | 57 | 58 | 73 | 69.4 | > 256 | 15 | 22 | ED50 (total acid secretion; administered SC, linear regression): 0.72 mg/kg; ED50 (total acid secretion; po, administered VO, linear regression): 0.7 mg/kg; % of inhibition of the total acid secretion (total acid secretion; administered SC, 1 mg.kg-1): 65%; % of inhibition of the total acid secretion (total acid secretion; administered SC, 2 mg.kg-1): 90%; % of inhibition of the total acid secretion (total acid secretion; administered VO, 0.125 mg.kg-1): 2%; % of inhibition of the total acid secretion (total acid secretion; administered VO, 0.25 mg.kg-1): 18%; % of inhibition of the total acid secretion (total acid secretion; administered VO, 0.5 mg.kg-1): 59%; % of inhibition of the total acid secretion (total acid secretion; administered VO, 1 mg.kg-1): 56%; % of inhibition of the total acid secretion (total acid secretion; administered VO, 2 mg.kg-1): 75%; % of protection of lesions provoked ([1]; 0.125 mg.kg-1 VO, ethanol lesions): 17%; % of protection of lesions provoked ([1]; 0.5 mg.kg-1 VO, ethanol lesions): 64%; ED50 (oedema (carragenin); Rattus norvegicus, po, VO, linear regression, read-out: AD50 (active dose 50)): 73.3 mg/kg; % of inhibition of the painful reactions ([2]; 8 mg.kg-1 VO): 6%; % of protection of lesions provoked ([3]; 8 mg.kg-1 VO, NSAID lesions): 62%; % of protection of lesions provoked ([3]; 16 mg.kg-1 VO, NSAID lesions): 87%; % of protection of lesions provoked ([3]; 32 mg.kg-1 VO, NSAID lesions): 95%; ED50 [3, 7]: 6.5 mg/kg
Cc1cc2cccnc2n(-c2ccccc2)c1=O [Example 11, 1-phenyl 1,2-dihydro 2-oxo 3-methyl 1,8-naphthyridine] | 76 | 81 | 86 | 95 | 94 |  |  |  |  |  |  |  |  |  |  |  |  |  | 100 |  | ED50 (total acid secretion; sc): 0.065 mg/kg; % of inhibition of the total acid secretion (total acid secretion; administered SC, 0.03 mg.kg-1): 37%; % of inhibition of the total acid secretion (total acid secretion; administered SC, 0.06 mg.kg-1): 46%; % of inhibition of the total acid secretion (total acid secretion; administered SC, 0.125 mg.kg-1): 63%; % of protection of lesions provoked ([1]; 4 mg.kg-1 VO, ethanol lesions): 98%; ED50 [1]: < 0.06 mg/kg; % of protection of lesions provoked ([3]; 0.25 mg.kg-1 VO, NSAID lesions): 1%; % of protection of lesions provoked ([3]; 0.5 mg.kg-1 VO, NSAID lesions): 34%; % of protection of lesions provoked ([3]; 1 mg.kg-1 VO, NSAID lesions): 75%; ED50 [3]: 0.67 mg/kg
O=c1ccc2cccnc2n1-c1cccc(C(F)(F)F)c1 [Example 4, 1-(3-trifluoromethylphenyl)1,2-dihydro 2-oxo 1,8-naphthyridine] |  |  |  |  | 6 | 2.2 | 14 | 21 | 80 | 70 | 83 | 6 | 39 | 37 | 79 | 93 | 62.0 | > 256 |  | 11 | % of protection of lesions provoked ([1]; 2 mg.kg-1 VO, ethanol lesions): 52%; % of protection of lesions provoked ([1]; 4 mg.kg-1 VO, ethanol lesions): 87%; % of protection of lesions provoked ([3]; 8 mg.kg-1 VO, NSAID lesions): 40%; % of protection of lesions provoked ([3]; 16 mg.kg-1 VO, NSAID lesions): 68%; % of protection of lesions provoked ([3]; 32 mg.kg-1 VO, NSAID lesions): 81%; ED50 [3, 7]: 12 mg/kg
